Measured values published in patent US20190203254A1, “CORTICAL NEURON CELL MODEL OF ALZHEIMER'S DISEASE BASED ON BMI1 DEFICIENCY, AND USES THEREOF” (9636137 Canada Inc., priority 2016, published 2019).

Columns and labels:
shBMI1 neurons [1] = assay: Ab42 levels by ELISA in shBMI1 neurons treated with BSI (FIG. 3H); format: cell-based, human; conditions: BSI vs vehicle control
Description: (§1) FIG. 3 is a panel with pictures and graphs illustrating that BMI1 deficiency in neurons results in p-Tau and amyloid accumulation. FIG. 3A: p-Tau (PHF1) accumulation in shBMI1 neurons but not in shCTL neurons (day 14). Scale bar: 40 mm. FIG. 3B: p-Tau (PHF1) accumulation in broken axonal segments of glutamatergic shBMl1 neurons (arrows), and co-localization of p-Tau with vGLUT1 in axonal swellings (arrows in the inset). Scale bar: 40 mm. FIG. 3C: Quantification of PHF1-positive neurons and of p-Tau foci/axon in shCTL (n=3) and shBMI1 (n=3) cultures. All values are mean±SEM. (*) P<0.05; (**) P<0.01 by Student's unpaired t-test. FIG. 3D: Confocal immunofluorescence for the apoptosis marker activated caspase-3 in shCTL and shBMl1 cultures. Scale bar: 40 mm. FIG. 3E: Quantification of activated caspase-3 positive cells in GABA+ and GABA− neuronal populations. All values are mean±SEM. (*) P<0.05 by Student's unpaired t-test. FIG. 3F: Amyloid accumulation in shBMl1 neurons as compared to shCTL neurons using the MOAB2 or PA3 antibodies. Scale bars: 40 mm. FIG. 3G: Confocal immunofluorescence for oligomeric amyloid (NU1) and Ab42 (PA3) of shCTL and shBMI1 neurons treated with beta-secretase inhibitor (BSI) or vehicle control. FIG. 3H: Intracellular and extracellular Ab42 levels in shCTL (n=3) and shBMl1 (n=3) neurons by ELISA. […]

shBMI1 neurons [2] = assay: Confocal immunofluorescence for oligomeric amyloid (NU1) and Ab42 (PA3) in shBMI1 neurons treated with BSI (FIG. 3G); format: cell-based, human; conditions: BSI vs vehicle control
Description: as §1

sAD patients = conditions: tested and abandoned in 2014 {De Strooper; cited from earlier work
shBMI1 neurons [3] = format: cell-based, human
Description: FIG. 5 is a panel with pictures and graphs illustrating that BMI1 deficiency in neurons results in activation of MAPT, GSK3b and p53. FIG. 5A: Immunoblots for AD-related proteins in shCTL, shBMI1 and BMI1 overexpressing (BMI1 OE) neurons. Protein expression ratios were established using Ponceau staining and where expression in shCTL neurons was set as 1. FIG. 5B: Confocal analysis of F-Actin (phalloidin), amyloid (PA3), p-Tau (PHF1) and activated caspase-3 (Casp3a) in shBMI1 neurons treated with DMSO, β-secretase inhibitor (BSI), γ-secretase inhibitor (GSI) or y-secretase modulator (GSM). Quantification was established using shCTL neurons set as 1. Scale bar: 40 μm.
Human embryonic stem cells were differentiated into cortical neurons. The differentiation protocol was based on a previous study (Espuny-Camacho, I., et al., Pyramidal neurons derived from human pluripotent stem cells integrate efficiently into mouse brain circuits in vivo. Neuron 77, 440-456, (2013)). However, the Noggin agonist LDN193189 was used to reduce recombinant Noggin concentration. The H9 (WiCell™) and HUES9 (Harvard Stem Cell Institute) cell lines were dissociated using Accutase™ (Innovative Cell Technology #AT-104) and platted on growth factor reduced Matrigel™ (Corning #356231) in PeproGrow™ hES cell media (PeproTech #BM-hESC) supplemented with ROCK™ inhibitor (Y-27632; 10 μM, Cayman Chemical #10005583). Upon 70% of confluency, the media was changed to DDM supplemented with B27 (1× final), Noggin (10 ng/ml, PeproTech #120-10C) and LDN193189 (0.5 μM; Sigma #SML0559). The medium was changed every day. After 16 days of differentiation, the medium was changed to DDM/B27 and replenished every day. At day 24, neural progenitors were manually detached from the plate and mixed with lentiviral supernatant for 30 min at 37° C. Infected neural progenitors were subsequently mixed in DDM/B27 supplemented with ROCK™ inhibitor (Y-27632; 10 μM) and platted on growth factor reduced Matrigel™ coated plates or chamber slides (LabTek™ #154534). Five days after the dissociation/infection, half of the medium was changed for Neurobasal™ A media supplemented with B27 (1× final) and changed again every three days. For 3D cultures, neural progenitors at day 24 were mixed with ice-cold growth factor reduced Matrigel™ (1:20 dilution) and plated onto 8-well chamber slides. After 30 min of incubation at 37° C., fresh Neurobasal™ A/B27 were added.
Sequence-specific oligonucleotides stretch shRNA designed to target the BMI-1 ORF (accession No.: BC011652): were synthetized. Oligo#1 (nt 1061-1081) 5′-CCTAATACT TTCCAGATTGAT-3′ (SEQ ID NO: 3) and oligoScramble (nt 573-591) 5′-GGTACTTCATTGATGCCAC-3′ (SEQ ID NO: 4) were used in this study. These sequences are followed by the loop sequence (TTCAAGAGA) (SEQ ID NO: 5) and finally the reverse complements of the targeting sequences. The double stranded shRNA sequences were cloned downstream of the H1P promoter of the H1 P-UbqC-HygroEGFP plasmid using Age1, SmaI, and XbaI cloning sites. The shRNA-expressing lentiviral plasmids were cotransfected with plasmids pCMVdR8.9 and pHCMV-G into 293FT packaging cells using Lipofectamin™ (Invitrogen) according to the manufacturers instructions. Viral containing media were collected, filtered, and concentrated by ultracentrifugation. Viral titers were measured by serial dilution on 293T cells followed by microscopic analysis 48 hr later. For viral transduction, lentiviral vectors were added to dissociated cells prior to plating. […]

[4] = BMI1-deficient neurons, working concentration BSI 1 μM, GSI 0.5 μM, GSM 30 μM, FIG. 5B

Structure (SMILES) | amyloid (Ab42) concentration by ELISA (shBMI1 neurons [1]) | amyloid immunoreactivity (antibodies against Ab42) (shBMI1 neurons [2]) | neuro-toxicity in sAD patients (sAD patients) | toxicity for BMI1-knockdown human cortical neurons (shBMI1 neurons [3]) | p-Tau localization (shBMI1 neurons [3]; BMI1-deficient neurons, GSI 0.5 μM, FIG. 5B) | amyloid immuno-reactivity (PA3) / C99/amyloid accumulation (shBMI1 neurons [3]; [4]) | p-Tau (PHF1) immuno-reactivity / intensity (shBMI1 neurons [3]; [4]) | most pathological parameters (shBMI1 neurons [3]; BMI1-deficient neurons, working concentration GSI 0.5 μM, GSM 30 μM, FIG. 5B)
C[C@@H](NC(=O)c1cc(C(=O)N[C@@H](Cc2ccccc2)[C@H](O)CNC2CC2)cc(N(C)S(C)(=O)=O)c1)c1ccccc1 [BSI, BSI-IV] | normalized | highly reduced | – | – | – | – | – | –
C[C@H](NC(=O)Cc1cc(F)cc(F)c1)C(=O)N[C@H](C(=O)OC(C)(C)C)c1ccccc1 [GSI, DAPT] | – | – | high | toxic | re-localization of p-Tau to the neuronal soma suggested tangle formation | reached saturation levels | reduced | did not improve
